Here are results for ten compounds from patent EP0703222A1, “3-AMINOAZEPINE COMPOUND AND PHARMACEUTICAL USE THEREOF” (YOSHITOMI PHARMACEUTICAL INDUSTRIES, LTD., priority 1993, dated 1994).

One experiment has as its target T1, CCK-B receptor (Rattus norvegicus, UniProt P30553).
T1 construct: cerebral cortex from rat was prepared and suspended in a buffer; from tissue; host or cells: rat cerebral cortex membrane suspension
T1 sequence (P30553 1-452): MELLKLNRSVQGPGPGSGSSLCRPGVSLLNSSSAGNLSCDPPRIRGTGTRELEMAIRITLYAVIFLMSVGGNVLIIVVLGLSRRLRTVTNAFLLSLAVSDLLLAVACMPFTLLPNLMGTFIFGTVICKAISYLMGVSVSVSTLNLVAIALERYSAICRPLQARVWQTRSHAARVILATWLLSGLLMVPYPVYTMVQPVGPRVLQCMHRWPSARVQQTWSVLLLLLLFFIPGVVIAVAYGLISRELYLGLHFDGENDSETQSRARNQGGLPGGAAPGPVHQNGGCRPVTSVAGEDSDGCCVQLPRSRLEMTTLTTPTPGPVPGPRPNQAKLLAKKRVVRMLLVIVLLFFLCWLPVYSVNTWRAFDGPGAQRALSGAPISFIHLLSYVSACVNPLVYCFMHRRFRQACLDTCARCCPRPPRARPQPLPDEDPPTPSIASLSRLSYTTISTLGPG
The experiment can be described thus: CCK-B receptor binding test (brain). Particulars: for Ki: rat cerebral cortex membranes, 125I-CCK-8, 20°C, 30 minutes, read-out: binding affinity (Ki,nM) CCK-B; for selectivity (A/B): ratio CCK-A / CCK-B binding affinity. How it is done: Experimental Example 2 : CCK-B receptor binding test (brain)
In the case of the central nervous system, cerebral cortex from rat was prepared and suspended in a buffer, pH 6.5, containing 5 mM magnesium chloride, 1 mM EGTA [ethylene glycol bis(2-aminoethylether)tetraacetic acid], 360 mM sodium chloride, 15 mM potassium chloride, 20 mM HEPES (N-2-hydroxyethylpiperazine-N'-2-ethanesulfonic acid) and 0.25 mg/ml bacitracin. For binding assay, 50 µl of a buffer (for total binding), unlabeled CCK-8 sulfate (for nonspecific binding) having a final concentration of 1 µM or a test compound (for determining inhibition of ¹²⁵I-CCK binding) and 50 µl of ¹²⁵I-CCK-8 (63-67 TBq/mmol, 40,000 - 50,000 cpm) were added to a membrane suspension (450 µl, containing 100 µg protein). The reaction mixture was incubated at 20°C for 30 minutes, filtered by suction through a glass fiber filter (Whatman GF/B), and immediately thereafter washed 3 times with ice-cooled Tris buffer (2.5 ml). The radioactive concentration on the filter was measured.
(§1) Inhibition (%) = 100 -((binding when compound added - nonspecific binding))/((total binding - nonspecific binding))× 100 [formula]

The target of another experiment is T2, CCK-A receptor (Rattus norvegicus, UniProt P30551).
T2 construct: The whole pancreas was removed from a male rat; from tissue; host or cells: rat pancreas membrane homogenate
T2 sequence (P30551 1-444): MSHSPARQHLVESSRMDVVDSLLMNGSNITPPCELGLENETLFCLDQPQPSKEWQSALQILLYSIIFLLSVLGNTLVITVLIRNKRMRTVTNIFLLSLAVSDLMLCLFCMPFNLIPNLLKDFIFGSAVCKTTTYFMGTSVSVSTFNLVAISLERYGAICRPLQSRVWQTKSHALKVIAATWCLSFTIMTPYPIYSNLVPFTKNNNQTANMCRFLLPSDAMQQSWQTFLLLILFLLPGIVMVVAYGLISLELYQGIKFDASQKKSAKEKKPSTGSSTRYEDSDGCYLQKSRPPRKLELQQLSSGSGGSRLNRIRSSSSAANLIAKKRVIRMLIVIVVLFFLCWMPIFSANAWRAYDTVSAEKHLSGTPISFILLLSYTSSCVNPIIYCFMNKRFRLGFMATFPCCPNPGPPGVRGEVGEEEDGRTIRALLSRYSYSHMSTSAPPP
Description: CCK-A receptor binding test (pancreas). The conditions noted are these: for Ki: rat pancreas membranes, 125I-CCK-8, 20°C, 30 minutes, read-out: binding affinity (Ki,nM) CCK-A; for affinity for CCK-A receptor (in words): summary of the binding results in the text. How it is done:
Experimental Example 1 : CCK-A receptor binding test (pancreas)
The whole pancreas was removed from a male rat. The fat tissues were removed and the pancreas was homogenized (Brinkman Polytron PT20) in 50 mM Tris hydrochloric acid (pH 7.5). The homogenate was filtered through a nylon cloth (120 mesh) and centrifuged at 50,000 × g for 12 minutes. The obtained sediment was homogenized in Tris buffer as in the above and centrifuged. The sediment was suspended in a buffer for binding assay [50 mM Tris-HCl (pH 7.2) containing 5 mM magnesium chloride, 5 mM dithiothreitol, 2 mg/ml bovine serum albumin, 0.1 mg/ml bacitracin and 0.14 mg/ml trypsin inhibitor (soybean)] and used as a receptor source.
For binding assay, 50 µl of a buffer (for total binding), unlabeled CCK-8 sulfate (for nonspecific binding) having a final concentration of […] or a test compound (for determining inhibition of ¹²⁵I-CCK binding) and 50 µl of ¹²⁵I-CCK-8 (63-67 TBq/mmol, 40,000-50,000 cpm) were added to a membrane suspension (450 µl, containing 100 µg protein). The reaction mixture was incubated at 20°C for 30 minutes, filtered by suction through a glass fiber filter (Whatman GF/B), and immediately thereafter washed 3 times with ice-cooled Tris buffer (2.5 ml). The radioactive concentration on the filter was measured.
as §1

Broadly, the Ki is the equilibrium dissociation constant of an inhibitor or competing ligand from its target.

Consider `CN1C(=O)C(NC(=O)c2cc3ccccc3[nH]2)C=C(c2ccccc2)c2ccccc21` (single isomer, unassigned; (+)) [Example 36, (+)-N-(1-methyl-2-oxo-5-phenyl-2,3-dihydro-1H-1-benzazepin-3-yl)-2-indolecarboxamide], for which, on CCK-B receptor, the Ki was more than 1000 nM and the “selectivity (A/B)” value is less than 0.0047. Further, on CCK-A receptor, the Ki was 4.7 nM and the “affinity for CCK-A receptor (in words)” value is recorded as “strong, selective affinity for CCK-A receptor”.
For the compound `Cc1ccccc1C(=O)CN1C(=O)C(NC(=O)c2cc3ccccc3[nH]2)C=C(c2ccccc2)c2ccccc21` (single isomer, unassigned; (+)) [Example 81, (+)-N-(1-(2'-methylphenacyl)-2-oxo-5-phenyl-2,3-dihydro-1H-1-benzazepin-3-yl)-2-indole carboxamide], at CCK-B receptor, the Ki was more than 1000 nM and the “selectivity (A/B)” value is on record as less than 0.042. On CCK-A receptor, the Ki was determined as 42 nM and the “affinity for CCK-A receptor (in words)” value was “strong, selective affinity for CCK-A receptor”.
Consider `CCOC(=O)CN1C(=O)C(NC(=O)Nc2cccc(C)c2)C=C(c2ccccc2)c2ccccc21` (single isomer, unassigned; (-)) [Example 46, (-)-1-(1-ethoxycarbonylmethyl-2-oxo-5-phenyl-2,3-dihydro-1H-1-benzazepin-3-yl)-3-(3-methylphenyl)urea], for which, at CCK-B receptor, the Ki amounted to 0.87 nM and the “selectivity (A/B)” value amounted to 110. Moreover, the Ki at CCK-A receptor amounted to 100 nM.
Consider `CCOC(=O)CN1C(=O)C(NC(=O)Nc2ccc(C)cc2)C=C(c2ccccc2)c2ccccc21` (single isomer, unassigned; (-)) [Example 48, (-)-1-(1-ethoxycarbonylmethyl-2-oxo-5-phenyl-2,3-dihydro-1H-1-benzazepin-3-yl)-3-(4-methylphenyl)urea], for which, at CCK-B receptor, the Ki is 2.1 nM and the “selectivity (A/B)” value amounted to 100. In addition, at CCK-A receptor, the Ki was 210 nM.
Taken in the same sequence, the figures for `CCOC(=O)CN1C(=O)C(NC(=O)Nc2cccc(OC)c2)C=C(c2ccccc2)c2ccccc21` (single isomer, unassigned; (-)) [Example 52, (-)-1-(1-ethoxycarbonylmethyl-2-oxo-5-phenyl-2,3-dihydro-1H-1-benzazepin-3-yl)-3-(3-methoxyphenyl)urea] were 0.92 nM, 120 and 110 nM.
On the same counts, the results for `Cc1ccc(NC(=O)NC2C=C(c3ccccc3)c3ccccc3N(CC(=O)c3ccccc3C)C2=O)cc1` (single isomer, unassigned; (-)) [Example 64, (-)-1-(1-(2'-methylphenacyl)-2-oxo-5-phenyl-2,3-dihydro-1H-1-benzazepin-3-yl)-3-(4-methylphenyl)urea] are 1.1 nM, 180 and 200 nM.
Taken in the same sequence, the figures for `Cc1ccccc1NC(=O)NC1C=C(c2ccccc2)c2ccccc2N(CC(=O)c2ccccc2C)C1=O` (single isomer, unassigned; (-)) [Example 66, (-)-1-(1-(2'-methylphenacyl)-2-oxo-5-phenyl-2,3-dihydro-1H-1-benzazepin-3-yl)-3-(2-methylphenyl)urea] were 2.5 nM, 124 and 310 nM.
As to `COc1ccc(NC(=O)NC2C=C(c3ccccc3)c3ccccc3N(CC(=O)c3ccccc3C)C2=O)cc1` (single isomer, unassigned; (-)) [Example 68, (-)-1-(4-methoxyphenyl)-3-(1-(2'-methylphenacyl)-2-oxo-5-phenyl-2,3-dihydro-1H-1-benzazepin-3-yl)urea], at CCK-B receptor, the Ki stood at 1.1 nM and the “selectivity (A/B)” value amounted to 140. The Ki at CCK-A receptor came out at 150 nM.
On the same counts, the results for `Cc1ccccc1C(=O)CN1C(=O)C(NC(=O)Nc2ccccc2Cl)C=C(c2ccccc2)c2ccccc21` (single isomer, unassigned; (-)) [Example 74, (-)-1-(2-chlorophenyl)-3-(1-(2'-methylphenacyl)-2-oxo-5-phenyl-2,3-dihydro-1H-1-benzazepin-3-yl)urea] are 2.4 nM, 120 and 290 nM.
Taken in the same sequence, the figures for `Cc1cccc(NC(=O)N[C@@H]2N=C(c3ccccc3)c3ccccc3N(C)C2=O)c1` [Example L-365260, (R)-N-(2,3-dihydro-1-methyl-2-oxo-5-phenyl-1H-1,4-benzodiazepin-3-yl)-N'-(3-methylphenyl)urea, reference compound] were 19 nM, 21 and 390 nM.
